Several values for one entry are separate records, joined by “and”; a condition that tells them apart may be missing. Identical values can stand only once. Activity calls are given as the source filed them.
Key:
NS3 = NS3 (Hepatitis C virus, UniProt A3EZJ3); assay: NS3h DNA-binding inhibition IC50 – biochemical, fluorescence polarization, ChemBridge library, dose response (AID 743264)
Bcl-2-like protein 10 [1] = biological target: T1, Bcl-2-like protein 10 (Homo sapiens, UniProt Q9HD36); assay: Concentration-response of Bcl-B inhibitors by biochemical FP with TR3 (AID 1243); type: functional
T1 sequence (Q9HD36 whole entry): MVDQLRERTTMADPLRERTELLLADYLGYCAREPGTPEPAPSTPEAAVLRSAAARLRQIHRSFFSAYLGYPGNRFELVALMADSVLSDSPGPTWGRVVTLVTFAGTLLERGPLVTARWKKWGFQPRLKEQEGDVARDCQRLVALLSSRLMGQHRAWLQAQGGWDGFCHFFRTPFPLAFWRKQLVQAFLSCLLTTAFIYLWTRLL

[2] = biological target: T2, Neuropeptide Y receptor type 2 (Homo sapiens, UniProt P49146); assay: IC50 for human NPY-Y2 blockade – cell-based, counter-screen for NPY-Y1 antagonist project, dose response (AID 1278); type: functional
T2 sequence (P49146 whole entry): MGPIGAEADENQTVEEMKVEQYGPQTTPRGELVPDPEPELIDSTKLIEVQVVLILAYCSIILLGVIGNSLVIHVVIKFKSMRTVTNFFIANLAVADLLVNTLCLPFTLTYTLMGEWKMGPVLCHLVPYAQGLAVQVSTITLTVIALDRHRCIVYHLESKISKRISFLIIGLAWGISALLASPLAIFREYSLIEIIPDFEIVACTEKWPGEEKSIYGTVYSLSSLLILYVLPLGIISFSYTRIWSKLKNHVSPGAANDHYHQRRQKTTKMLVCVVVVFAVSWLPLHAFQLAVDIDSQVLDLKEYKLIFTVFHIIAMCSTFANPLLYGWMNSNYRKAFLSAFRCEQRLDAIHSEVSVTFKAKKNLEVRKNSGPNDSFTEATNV

[3] = biological target: T3, Neuropeptide Y receptor type 1 (Homo sapiens, UniProt P25929); assay: IC50 of human NPY-Y1 blockers – cell-based, dose response (AID 1277); type: functional
T3 sequence (P25929 whole entry): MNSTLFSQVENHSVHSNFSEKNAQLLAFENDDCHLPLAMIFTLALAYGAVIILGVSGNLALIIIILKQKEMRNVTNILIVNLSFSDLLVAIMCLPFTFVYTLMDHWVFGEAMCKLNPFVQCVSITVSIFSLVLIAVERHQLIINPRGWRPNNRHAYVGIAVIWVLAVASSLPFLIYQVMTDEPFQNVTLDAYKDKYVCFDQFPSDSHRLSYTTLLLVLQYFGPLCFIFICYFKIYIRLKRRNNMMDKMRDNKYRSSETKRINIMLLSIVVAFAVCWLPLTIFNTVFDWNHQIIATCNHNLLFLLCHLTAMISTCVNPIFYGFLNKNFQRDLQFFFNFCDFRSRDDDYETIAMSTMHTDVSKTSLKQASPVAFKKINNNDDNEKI

[4] = biological target: Potassium voltage-gated channel subfamily KQT member 2 (Rattus norvegicus, UniProt O88943); assay: blockers of KCNQ2 channel current – cell-based, automated electrophysiology, set II, rat KCNQ2, dose response (AID 588637); type: functional
Sequence of Potassium voltage-gated channel subfamily KQT member 2 (Rattus norvegicus, UniProt O88943) (O88943 whole entry): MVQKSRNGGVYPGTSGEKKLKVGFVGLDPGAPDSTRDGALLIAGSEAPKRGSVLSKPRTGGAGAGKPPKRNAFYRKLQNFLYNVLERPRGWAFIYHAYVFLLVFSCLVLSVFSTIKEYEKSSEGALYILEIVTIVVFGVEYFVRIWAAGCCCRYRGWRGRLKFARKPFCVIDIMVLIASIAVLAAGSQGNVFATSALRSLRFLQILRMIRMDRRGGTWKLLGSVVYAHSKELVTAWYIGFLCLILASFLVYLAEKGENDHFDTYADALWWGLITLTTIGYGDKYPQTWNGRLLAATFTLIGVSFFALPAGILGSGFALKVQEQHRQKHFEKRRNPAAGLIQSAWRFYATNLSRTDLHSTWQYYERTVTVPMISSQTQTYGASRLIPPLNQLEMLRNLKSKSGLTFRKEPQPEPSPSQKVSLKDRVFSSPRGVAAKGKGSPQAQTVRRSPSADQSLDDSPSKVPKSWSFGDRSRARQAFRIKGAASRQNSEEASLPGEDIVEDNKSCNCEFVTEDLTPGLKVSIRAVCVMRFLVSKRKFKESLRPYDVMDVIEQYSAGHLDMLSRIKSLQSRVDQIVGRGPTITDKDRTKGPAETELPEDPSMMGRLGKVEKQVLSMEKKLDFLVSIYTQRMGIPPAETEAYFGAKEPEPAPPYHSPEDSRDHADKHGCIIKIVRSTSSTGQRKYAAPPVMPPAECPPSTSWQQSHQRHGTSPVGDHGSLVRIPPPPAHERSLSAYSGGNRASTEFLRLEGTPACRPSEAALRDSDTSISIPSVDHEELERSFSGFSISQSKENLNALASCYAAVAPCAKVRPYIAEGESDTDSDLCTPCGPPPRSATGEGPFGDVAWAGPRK

[5] = biological target: Potassium voltage-gated channel subfamily KQT member 2 (Rattus norvegicus, UniProt O88943, W236L); assay: potentiation of rat KCNQ2 current – cell-based, automated electrophysiology, mechanism study for KCNQ2 potentiator project, dose response (AID 2603); type: functional
Sequence of Potassium voltage-gated channel subfamily KQT member 2 (Rattus norvegicus, UniProt O88943, W236L) (O88943 whole entry W236L): as the sequence (O88943 whole entry) above, with W236L counted along it

[6] = biological target: Sphingosine 1-phosphate receptor 2 (Homo sapiens, UniProt O95136); assay: Dose Response Cell Based Assay for Agonists of the S1P2 Receptor of Purchased Analogues. [Related pubchem assays: 729, 843, 854, 736 ]; type: functional
Sequence of Sphingosine 1-phosphate receptor 2 (O95136 whole entry): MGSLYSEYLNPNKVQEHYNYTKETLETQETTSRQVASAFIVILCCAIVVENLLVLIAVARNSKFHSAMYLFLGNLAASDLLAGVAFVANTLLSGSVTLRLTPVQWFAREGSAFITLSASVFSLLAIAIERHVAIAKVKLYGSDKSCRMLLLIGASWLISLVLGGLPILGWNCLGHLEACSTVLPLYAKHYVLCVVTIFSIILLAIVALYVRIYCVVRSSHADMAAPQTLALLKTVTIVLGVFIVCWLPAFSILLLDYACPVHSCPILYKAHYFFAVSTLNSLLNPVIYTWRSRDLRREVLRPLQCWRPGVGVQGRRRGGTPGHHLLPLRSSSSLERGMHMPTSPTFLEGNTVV

[7] = biological target: T4, Heat shock 70 kDa protein 1A (Homo sapiens, UniProt P0DMV8); assay: small molecules displacing fluorescent ligand from Hsp70 – biochemical, fluorescence polarization, primary screen (AID 583)
T4 sequence (P0DMV8 whole entry): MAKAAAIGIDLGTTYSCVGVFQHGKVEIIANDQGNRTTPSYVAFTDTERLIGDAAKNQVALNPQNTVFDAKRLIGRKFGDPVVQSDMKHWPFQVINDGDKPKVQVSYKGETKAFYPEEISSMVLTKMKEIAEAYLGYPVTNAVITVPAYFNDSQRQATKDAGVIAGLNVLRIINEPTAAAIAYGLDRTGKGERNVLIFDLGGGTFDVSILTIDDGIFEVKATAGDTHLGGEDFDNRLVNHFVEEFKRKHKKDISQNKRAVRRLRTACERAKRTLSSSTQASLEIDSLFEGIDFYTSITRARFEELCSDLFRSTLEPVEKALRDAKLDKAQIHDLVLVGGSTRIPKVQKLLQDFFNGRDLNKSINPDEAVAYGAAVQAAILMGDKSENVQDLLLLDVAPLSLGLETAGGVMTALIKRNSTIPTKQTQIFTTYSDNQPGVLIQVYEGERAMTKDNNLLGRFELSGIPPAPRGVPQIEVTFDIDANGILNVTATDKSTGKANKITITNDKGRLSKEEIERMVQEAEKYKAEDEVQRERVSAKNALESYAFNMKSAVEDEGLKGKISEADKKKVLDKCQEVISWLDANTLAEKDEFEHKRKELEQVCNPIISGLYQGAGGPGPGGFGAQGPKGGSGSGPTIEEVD

[8] = biological target: T4, Heat shock 70 kDa protein 1A; assay: small-molecule inhibition of Hsp70 – biochemical, TR-FRET (AID 786)
[9] = biological target: T5, Tyrosine-protein phosphatase non-receptor type 7 (Homo sapiens, UniProt P35236); assay: redox-active compounds inhibiting HePTP phosphatase – biochemical, fluorescence, mechanism study (AID 2068); type: functional
T5 sequence (P35236 whole entry): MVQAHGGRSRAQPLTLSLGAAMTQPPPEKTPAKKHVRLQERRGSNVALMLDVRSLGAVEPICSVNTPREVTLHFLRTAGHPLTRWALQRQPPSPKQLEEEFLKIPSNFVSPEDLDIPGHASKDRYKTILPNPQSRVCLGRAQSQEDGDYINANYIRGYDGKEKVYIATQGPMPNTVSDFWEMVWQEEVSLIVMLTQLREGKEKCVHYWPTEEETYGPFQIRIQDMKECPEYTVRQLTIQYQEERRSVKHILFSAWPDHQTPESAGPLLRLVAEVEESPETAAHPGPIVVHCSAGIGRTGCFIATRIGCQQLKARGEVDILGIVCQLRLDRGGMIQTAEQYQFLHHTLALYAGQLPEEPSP

Bcl-2-like protein 10 [10] = biological target: T1, Bcl-2-like protein 10; assay: Bcl-B/TR3 peptide binding disruption – biochemical, fluorescence polarization, FITC-TR3 peptide, selectivity assay for Bfl-1 inhibitor project, primary screen (AID 748);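 note: fluorescence polarization from a fluorescein-labelled TR3 peptide binding purified Bcl-B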
[11] = biological target: T6, Short transient receptor potential channel 4 (Mus musculus, UniProt Q9QUQ5); assay: block of DAMGO-driven TRPC4 calcium entry – cell-based, HEK293 TRPC4/mu-opioid, Fluo-4 calcium, dose response (AID 434942); type: functional;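 note: potency of inhibitors blocking the TRPC4 calcium response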
T6 sequence (Q9QUQ5 whole entry): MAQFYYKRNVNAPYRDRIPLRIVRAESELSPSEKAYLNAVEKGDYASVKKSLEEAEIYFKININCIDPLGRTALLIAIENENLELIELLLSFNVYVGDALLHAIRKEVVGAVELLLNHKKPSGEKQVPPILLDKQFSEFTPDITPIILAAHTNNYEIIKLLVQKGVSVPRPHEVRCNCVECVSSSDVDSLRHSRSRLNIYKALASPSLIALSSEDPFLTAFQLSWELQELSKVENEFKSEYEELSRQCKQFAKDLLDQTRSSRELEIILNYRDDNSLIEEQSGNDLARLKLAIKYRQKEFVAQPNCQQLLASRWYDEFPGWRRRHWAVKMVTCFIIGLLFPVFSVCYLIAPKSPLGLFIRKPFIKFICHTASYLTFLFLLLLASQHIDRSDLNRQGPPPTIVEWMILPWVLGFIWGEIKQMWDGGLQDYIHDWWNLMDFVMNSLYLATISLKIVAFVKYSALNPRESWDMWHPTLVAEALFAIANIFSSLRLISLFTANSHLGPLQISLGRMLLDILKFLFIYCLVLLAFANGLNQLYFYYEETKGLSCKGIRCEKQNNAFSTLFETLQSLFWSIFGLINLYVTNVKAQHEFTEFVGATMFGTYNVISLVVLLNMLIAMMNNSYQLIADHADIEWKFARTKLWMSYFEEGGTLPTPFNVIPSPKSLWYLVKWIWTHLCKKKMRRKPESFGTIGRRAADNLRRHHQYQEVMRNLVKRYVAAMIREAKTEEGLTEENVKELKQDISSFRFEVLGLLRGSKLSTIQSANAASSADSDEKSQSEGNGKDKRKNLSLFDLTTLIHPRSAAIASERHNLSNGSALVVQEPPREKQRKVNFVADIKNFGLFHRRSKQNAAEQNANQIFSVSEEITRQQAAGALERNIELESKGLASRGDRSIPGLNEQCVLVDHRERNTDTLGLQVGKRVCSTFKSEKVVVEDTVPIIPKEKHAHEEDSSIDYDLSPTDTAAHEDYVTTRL

Leucine aminopeptidase = biological target: T7, Leucine aminopeptidase (Plasmodium falciparum 3D7, UniProt Q8IL11); assay: P. falciparum M17LAP inhibitors, primary screen, biochemical, fluorogenic H-Leu-NHMec substrate, 1536-well (AID 1619); type: functional
T7 sequence (Q8IL11 whole entry): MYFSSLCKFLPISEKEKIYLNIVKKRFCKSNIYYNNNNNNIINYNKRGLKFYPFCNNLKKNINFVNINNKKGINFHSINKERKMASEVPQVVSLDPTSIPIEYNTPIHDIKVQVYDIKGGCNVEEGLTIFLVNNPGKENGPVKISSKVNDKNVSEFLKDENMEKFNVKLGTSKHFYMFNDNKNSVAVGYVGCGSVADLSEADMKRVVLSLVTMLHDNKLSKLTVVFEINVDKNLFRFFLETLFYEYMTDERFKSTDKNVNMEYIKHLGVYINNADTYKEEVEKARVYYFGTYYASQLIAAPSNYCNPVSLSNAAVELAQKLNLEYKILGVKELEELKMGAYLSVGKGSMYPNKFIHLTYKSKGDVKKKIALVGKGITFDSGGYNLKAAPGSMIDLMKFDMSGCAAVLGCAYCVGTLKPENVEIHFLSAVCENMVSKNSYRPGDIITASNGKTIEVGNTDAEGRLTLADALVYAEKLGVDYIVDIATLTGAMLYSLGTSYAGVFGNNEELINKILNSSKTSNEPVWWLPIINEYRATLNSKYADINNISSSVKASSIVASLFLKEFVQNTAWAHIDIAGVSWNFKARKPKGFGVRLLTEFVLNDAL

Aspartyl aminopeptidase = Aspartyl aminopeptidase (Plasmodium falciparum 3D7, UniProt Q8I2J3); assay: Counterscreen for inhibitors of M1 and M17 aminopeptidases: QFRET-based biochemical high throughput dose response assay for inhibitors of the Plasmodium falciparum M18 Aspartyl Aminopeptidase (PFM18AAP). [Related PubChem assays: 1619 (Screening assay (M17LAP inhibitors).), 1445 (Screening assay (M1AAP inhibitors).)]
Sequence of Aspartyl aminopeptidase (Q8I2J3 whole entry): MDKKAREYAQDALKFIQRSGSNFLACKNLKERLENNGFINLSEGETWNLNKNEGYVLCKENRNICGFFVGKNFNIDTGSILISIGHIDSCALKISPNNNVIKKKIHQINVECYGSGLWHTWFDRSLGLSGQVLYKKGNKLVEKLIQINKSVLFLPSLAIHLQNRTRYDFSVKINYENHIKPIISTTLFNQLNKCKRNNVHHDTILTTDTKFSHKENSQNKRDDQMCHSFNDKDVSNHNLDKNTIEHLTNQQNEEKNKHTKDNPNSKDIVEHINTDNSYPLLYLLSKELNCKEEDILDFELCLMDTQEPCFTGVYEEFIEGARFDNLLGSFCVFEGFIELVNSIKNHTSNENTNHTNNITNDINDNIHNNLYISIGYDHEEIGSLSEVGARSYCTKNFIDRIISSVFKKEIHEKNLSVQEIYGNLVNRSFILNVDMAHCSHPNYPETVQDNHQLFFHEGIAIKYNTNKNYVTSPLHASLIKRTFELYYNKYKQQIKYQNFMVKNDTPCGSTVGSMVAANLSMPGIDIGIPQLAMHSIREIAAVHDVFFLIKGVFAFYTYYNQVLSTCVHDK

Procathepsin L = Procathepsin L (Homo sapiens, UniProt P07711); assay: CTSL1 protease inhibition – biochemical, QFRET, 1536-well, counter-screen for M1/M17 aminopeptidase inhibitor project, dose response (AID 2214)
Sequence of Procathepsin L (P07711 whole entry): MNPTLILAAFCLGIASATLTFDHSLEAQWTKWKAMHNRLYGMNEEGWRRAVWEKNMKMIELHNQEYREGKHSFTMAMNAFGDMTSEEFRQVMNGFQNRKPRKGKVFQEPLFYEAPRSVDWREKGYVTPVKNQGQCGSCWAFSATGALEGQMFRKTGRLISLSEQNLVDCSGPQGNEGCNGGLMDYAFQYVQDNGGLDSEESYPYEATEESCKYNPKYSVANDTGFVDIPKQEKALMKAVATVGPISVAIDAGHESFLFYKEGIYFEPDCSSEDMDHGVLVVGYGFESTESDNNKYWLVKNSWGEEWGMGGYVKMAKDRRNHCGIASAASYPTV

[12] = biological target: T3, Neuropeptide Y receptor type 1; type: functional
[13] = biological target: T2, Neuropeptide Y receptor type 2; type: functional, cell-based
Vero = assay: cells; type: functional, cell-based; settings: Chlorocebus sabaeus
H4 = assay: Luminescence Cell-Based Dose Response HTS to Identify Activators of 5'UTR Stem-Loop Driven Prion Protein mRNA Translation in H4 Neuroglioblastoma Cells. [Related pubchem assays: 1829 (Project Summary), 1814 (Primary HTS)]; type: functional; settings: Homo sapiens
[14] = Luminescence Cell-Based Dose Confirmation HTS to Identify Activators of 5'UTR Stem-Loop Driven Alpha-Synuclein mRNA Translation in H4 Neuroglioblastoma Cells. [Related pubchem assays: 1829 (Project Summary), 1814 (Primary HTS)]; type: functional
[15] = Luminescence Cell-Based Dose Response HTS to Identify Activators of Luciferase Translation or Activity in H4 […] Cells. [Related pubchem assays: 1829 (Project Summary), 1814 (Primary HTS)]; type: functional
[16] = viability of uninfected HEp-2 cells – cell-based, HTS, cytotoxicity control for RSV inhibitor project, dose response (AID 2410); type: functional; settings: human respiratory syncytial virus
Estrogen receptor = biological target: T8, Estrogen receptor (Homo sapiens, UniProt P03372); assay: ERα coactivator recruitment enhancers – biochemical, TR-FRET, ERα LBD, dose response (AID 737)
T8 sequence (P03372 whole entry): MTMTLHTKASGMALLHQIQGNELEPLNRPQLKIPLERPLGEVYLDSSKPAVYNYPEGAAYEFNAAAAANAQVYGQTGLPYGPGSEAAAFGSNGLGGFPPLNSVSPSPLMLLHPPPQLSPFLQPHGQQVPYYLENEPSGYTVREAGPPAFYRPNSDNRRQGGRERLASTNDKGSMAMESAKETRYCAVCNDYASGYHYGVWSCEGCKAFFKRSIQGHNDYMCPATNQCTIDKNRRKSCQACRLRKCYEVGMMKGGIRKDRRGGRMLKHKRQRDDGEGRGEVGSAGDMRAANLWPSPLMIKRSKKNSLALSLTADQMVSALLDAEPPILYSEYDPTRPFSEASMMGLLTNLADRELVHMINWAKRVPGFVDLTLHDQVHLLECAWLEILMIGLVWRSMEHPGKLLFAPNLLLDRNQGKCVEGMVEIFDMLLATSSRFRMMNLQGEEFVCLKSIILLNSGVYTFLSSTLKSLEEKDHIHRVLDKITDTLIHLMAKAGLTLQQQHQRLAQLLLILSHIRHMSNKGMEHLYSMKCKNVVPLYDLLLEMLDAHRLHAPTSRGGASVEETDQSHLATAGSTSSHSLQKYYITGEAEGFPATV

Protein Tat = biological target: T9, Protein Tat (Human immunodeficiency virus type 1 group M subtype B (isolate HXB2)(HIV-1), UniProt P04608); type: functional;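 note: tat binding to TAR RNA read out by fluorescence polarization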
T9 sequence (P04608 whole entry): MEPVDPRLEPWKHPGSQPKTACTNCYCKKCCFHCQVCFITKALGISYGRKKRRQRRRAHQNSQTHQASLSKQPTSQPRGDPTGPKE

[17] = NIH-3T3 fibroblast cytotoxicity, dose response, cytotoxicity control, cell-based, fluorescence, Alamar Blue, secondary assay (AID 2327); type: functional;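 note: NIH-3T3 mouse fibroblasts cultured with fluconazole at 8 µg/mL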
[18] = viability loss in THP-1 monocytes – THP-1 cells, cytotoxicity control for Vif-APOBEC3G degradation inhibitor project, dose response (AID 1117359); type: functional; settings: THP-1
[19] = biological target: T10, Mannose-6-phosphate isomerase (Homo sapiens, UniProt P34949); assay: MPI enzyme activity inhibition – biochemical, fluorescence intensity, coupled assay, primary screen (AID 1209)
T10 sequence (P34949 whole entry): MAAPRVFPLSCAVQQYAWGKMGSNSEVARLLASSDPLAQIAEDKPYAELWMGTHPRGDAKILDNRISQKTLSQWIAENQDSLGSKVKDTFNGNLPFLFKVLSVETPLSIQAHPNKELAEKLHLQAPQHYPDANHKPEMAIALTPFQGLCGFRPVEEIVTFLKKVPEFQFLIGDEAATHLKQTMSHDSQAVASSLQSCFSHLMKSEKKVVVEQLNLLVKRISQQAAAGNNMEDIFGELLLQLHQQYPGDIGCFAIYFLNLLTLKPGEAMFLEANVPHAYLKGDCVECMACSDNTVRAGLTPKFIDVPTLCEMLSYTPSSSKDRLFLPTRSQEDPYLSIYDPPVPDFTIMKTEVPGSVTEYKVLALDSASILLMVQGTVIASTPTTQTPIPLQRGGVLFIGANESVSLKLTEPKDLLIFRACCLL

Sequence of NS3 (A3EZJ3 whole entry): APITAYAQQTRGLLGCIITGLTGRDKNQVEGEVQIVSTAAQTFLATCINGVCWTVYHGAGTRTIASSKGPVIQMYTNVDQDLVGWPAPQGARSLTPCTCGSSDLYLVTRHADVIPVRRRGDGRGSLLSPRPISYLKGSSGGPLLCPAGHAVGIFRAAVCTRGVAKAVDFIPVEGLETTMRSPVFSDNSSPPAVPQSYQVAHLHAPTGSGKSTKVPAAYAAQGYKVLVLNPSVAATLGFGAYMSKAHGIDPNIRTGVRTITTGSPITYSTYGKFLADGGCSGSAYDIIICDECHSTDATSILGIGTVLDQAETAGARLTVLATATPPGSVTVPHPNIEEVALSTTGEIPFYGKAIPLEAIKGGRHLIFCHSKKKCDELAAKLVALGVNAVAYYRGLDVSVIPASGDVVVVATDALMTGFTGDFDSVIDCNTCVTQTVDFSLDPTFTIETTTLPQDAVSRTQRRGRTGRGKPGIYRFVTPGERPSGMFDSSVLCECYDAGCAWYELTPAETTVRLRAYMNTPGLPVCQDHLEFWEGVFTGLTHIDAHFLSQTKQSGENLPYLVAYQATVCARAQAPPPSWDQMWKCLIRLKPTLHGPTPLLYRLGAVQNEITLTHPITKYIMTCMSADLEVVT

Cc1ccc(C)n1-c1ccc(OCC(=O)O)cc1
IC50 (NS3): 36 µM (inactive)
EC50 (Bcl-2-like protein 10 [1]): 8.75 µM (active)

CCCCOc1cccc(OCCCC)c1C(=O)Nc1cc(C)on1
IC50 [2]: > 35 µM (not active)
IC50 [3]: > 35 µM (not active)
IC50 [4]: 4.03 µM (active)

CCCCC1CCC(C(=O)NCC(c2ccco2)N2CCOCC2)CC1 (stereo not drawn)
EC50 [5]: 0.92 µM (active)

CC(=O)Nc1ccc(SCC(=O)c2cc(C)n(Cc3ccccc3)c2C)cc1
EC50 [6]: > 30 µM (not active)

O=C(Nc1ccc2nc(-c3ccco3)c(-c3ccco3)nc2c1)N1CCCCCC1
IC50 [7]: > 100 µM (not active)
IC50 [8]: > 100 µM (not active)
IC50 [9]: 1.03 µM (active) and 1.85 µM (active)
IC50 (Bcl-2-like protein 10 [10]): 0.725 µM (active)

N#Cc1c(NC(=O)C2CC(Cl)=CCC2C(=O)O)sc2c1CCCCC2 (stereo not drawn)
EC50 [11]: 4.73 µM (active)
IC50 (Leucine aminopeptidase): < 1 µM (active)
IC50 (Aspartyl aminopeptidase): > 73.5 µM (not active)
IC50 (Procathepsin L): > 59.6 µM (not active)

COc1ccc(NC(=O)CSc2nc3ccccc3c(=O)n2CCCN2CCCCC2)c(OC)c1
IC50 [12]: 7.62 µM (active)
IC50 [13]: 14.7 µM (not active)

O=C(Nc1ccc(N2CCCCC2)c(Cl)c1)c1cccnc1
IC50 (cells): 13.6 µM (active)
IC50 (Vero): 8.75 µM (active)
EC50 (H4): > 120 µM (not active)
EC50 [14]: > 120 µM (not active)
EC50 [15]: 6.12 µM (active)
CC50 [16]: 15.4 µM (active)

COc1ccc(C(=O)Nc2nc(O)c3cc(OC)c(OC)cc3n2)cc1
EC50 (Estrogen receptor): 13.3 µM (not active)

COc1ccc(OC)c(Nc2nc(-c3ccc(O)c(O)c3)cs2)c1
IC50 (Protein Tat): > 100 µM (inconclusive)
EC50 [17]: 6.89 µM (active)
CC50 [18]: 9.32 µM (active)
IC50 [19]: > 50 µM (not active)

— ChEMBL document CHEMBL1201862, “PubChem BioAssay data set” (2004)
